Source: patent publication US9144569B2, “Methods of administering an aromatase inhibitor, prostaglandin and GnRH for regulating ovulation in cattle” (UNIVERSITY OF SASKATCHEWAN, priority 2010, dated 2015)
Read-outs that look alike come from different tables or passages of the source.

What was measured:
[1] = tested on: Hereford-cross beef heifers; experiment: Example II: computer-assisted ultrasound image analysis of CL and dominant follicle; format: in vivo, cattle
Description: Ultrasound images from a subset of letrozole-treated (n=4-5 per group) and control (n=6) heifers were recorded throughout the duration of treatment for computer-assisted image analysis. Images were analyzed using a series of custom-developed computer algorithms optimized for ultrasonography ([…] Version 2.8© Saskatoon, Saskatchewan) on a Sun Sparc Station (Sun Microsystems, MT View, Calif.) computer. Echotexture was defined in terms of mean pixel value and pixel heterogeneity. Mean pixel values were quantified using a grey-scale ranging from 0 (black) to 255 (white). The pixel heterogeneity was the standard deviation of grey-scale values of all the pixels within the user-defined region of measurement. Spot analysis of the follicular antrum and corpus luteum, and line analysis of the peripheral antrum, follicular wall and stroma were done as previously described. For spot analyses, the follicular antrum and the CL wall were divided into four quadrants and the sampling area encompassed 75 to 80% of each quadrant. For line analyses, a straight line was drawn transversing the follicular wall from peripheral antrum to stroma and the pixel values along that line were measured in areas located within the 10 and 2 o'clock position of the follicles.
Statistical analyses were done using the Statistical Analysis System software package (SAS Learning Edition 9.1, 2006; SAS Institute Inc., Cary, N.C., USA). Time-series hormone data, plasma letrozole concentration, and follicular and luteal diameter profiles were analysed by repeated measures, using the PROC MIXED procedure. The main effects were treatment, time, and their interactions. […] Single point measurements (interwave and interovulatory intervals, interval from ovulation to onset of CL regression, mean and basal LH concentrations, LH pulse amplitude and frequency, and pharmacokinetic parameters for letrozole) were analysed by analysis of variance. […] If significant main effects or interactions (P≦0.05) were detected, Tukey's post-hoc test was used for multiple comparisons.

[2] = Example I: plasma letrozole concentration (LC/MS/MS) and non-compartmental pharmacokinetics after single iv dose; format: in vivo, cattle; conditions: for AUC(0-t): read-out: Area under the curve (AUClast); for Cmax: read-out: Maximal concentration (Cmax); for clearance: read-out: Systemic clearance (Cls) (converted); for half-life: read-out: Half-life (T1/2) (converted); for MRT: read-out: Mean residence time (MRT)
Description: Heifers in which a CL was detected during the initial examination were given […] cloprostenol (PGF, Estrumate™, Schering-Plough Animal Health, Pointe-Claire, QC, Canada) intramuscularly (im) to induce regression of the CL and to synchronize ovulation. Heifers were examined daily by transrectal ultrasonography to detect ovulation. Transvaginal ultrasound-guided follicular aspiration of follicles ≧5 mm was performed five to eight days after ovulation to synchronize wave emergence. Heifers were examined daily by transrectal ultrasonography to detect follicular wave emergence, which was expected 1 to 1.5 days after follicular ablation. Four days after follicular ablation (approximately 2.5 days after follicular wave emergence), and at the time follicular dominance becomes apparent, heifers were assigned randomly to the following treatment groups and given a single intravenous dose of 1) 500 μg/kg of letrozole (high dose group, n=9), 2) 250 μg/kg of letrozole (medium dose group, n=10), 3) 125 μg/kg of letrozole (low dose group, n=10), or 4) 20 ml of phosphate buffered saline (PBS control group, n=10). For practical purposes, the dose of letrozole was calculated based on an average weight of 400 kg for all heifers. The average oral dose used in women (2.5-5 mg per day for 5 days) was used to estimate the medium dose for cattle. The high and low doses were set as double and half the medium dose, respectively. The day of treatment was defined as Day 0. For intravenous injection, letrozole was prepared in 95% ethanol at a final concentration of 5 mg per ml, resulting in an injection volume of 10-40 ml. The experiment was performed in four replicates (n=2-3 per group per replicate) and each heifer was used only once.
Blood samples were collected by jugular or coccygeal venipuncture into 10 ml heparinized vacuum tubes (Becton Dickinson Vacutainer Systems, Franklin Lakes, N.J., USA). Blood samples were collected at 0, 0.25, 0.5, 1, 1.5, 2, 3, 4, 6, 8, 12, 24, 36, 48 hours post-treatment using an indwelling jugular catheter as previously described and daily thereafter to the first post-treatment ovulation. Blood samples were centrifuged at 1500×g for 20 minutes; plasma was separated and stored in plastic tubes at −20° C.
Plasma concentrations of letrozole were determined using high performance liquid chromatography tandem mass spectrometry (LC/MS/MS). To extract letrozole from the samples, 250 μL of a buffer solution (0.1M ammonium) were added to 250 μL of plasma followed by the addition of 5 mL of methyl t-butyl ether (MTBE) and vortexed for 15 seconds. The organic layer was removed by pipetting and transferred to a fresh 15 mL plastic tube. This second tube was dried by gentle nitrogen gas flow. The dried extract was reconstituted in 1 mL of 100% ethanol, sonicated for 5 minutes and transferred to a labelled vial for further analysis. Separation was accomplished by HPLC (Agilent 1200, Santa Clara, Calif., USA) fitted with an analytical column (50×2.1 mm, 3 μm particle size; Thermo Scientific Betasil C18, Waltham, Mass., USA) operated at 35° C. Gradient conditions were used at a flow rate of 250 μL/min, starting at 85% A (0.1% acetic acid) and 15% B (0.1% acetic acid in acetonitrile). Initial conditions were held for 2 min and then ramped to 100% B at 6 min, held until 9 min, decreased to 0% B at 11 minutes, and returned to initial conditions at 13 minutes, and held constant until 15 minutes. Mass spectra were collected using a tandem mass spectrometer (Applied Bioscience SCIEX 3000, Foster City, Calif., USA) fitted with an electrospray ionization source, operated in the negative ionization mode. Chromatograms were recorded using multiple reaction monitoring (MRM) mode, where at least two transitions per-analyte were monitored. […]

[3] = tested on: circulating estradiol; conditions: post-menopausal women [30]; cited from earlier work
[4] = female, bovine, plasma, 125 ug/kg, 125 μg/kg single iv, n=9
[5] = female, bovine, plasma, 250 ug/kg, 250 μg/kg single iv, n=9
[6] = female, bovine, plasma, 500 ug/kg, 500 μg/kg single iv, n=9
[7] = female, bovine, plasma, iv, 125 ug/kg, 125 μg/kg single iv, n=9
[8] = female, bovine, plasma, iv, 250 ug/kg, 250 μg/kg single iv, n=9
[9] = female, bovine, plasma, iv, 500 ug/kg, 500 μg/kg single iv, n=9
[10] = female, bovine, plasma, iv, doses combined

N#Cc1ccc(C(c2ccc(C#N)cc2)n2cncn2)cc1 [Letrozole, letrozole]
mean pixel values and heterogeneity of the dominant follicle antrum (spot analysis) ([1]; 3-day regimen, any of the three periods): not affected significantly
mean pixel values of the dominant follicle wall (line analysis), pre- to post-treatment ([1]; treated Days 1 to 3, P<0.06): increased
mean pixel values or heterogeneity along the follicular wall (line analysis) ([1]; treated Days 3 to 5 (printed Days 3 and 5)): no effect
mean pixel values or heterogeneity along the follicular wall (line analysis) ([1]; treated Days 5 to 7 (printed Days 5 and 7)): no effect
mean circulating level of letrozole during the first 96 hours ([2]; 250 μg/kg, single application): 112 ± 16.26 ng/mL
Half-life (T1/2) ([2]; doses combined): 27.3 ± 0.42 h
AUC(0-t) [2, 4]: 8800 ± 720 ng·h/mL
Cmax [2, 4]: 1200 ± 250 ng/mL
clearance [2, 4]: 0.243 mL/min/kg
AUC(0-t) [2, 5]: 17300 ± 2000 ng·h/mL
Cmax [2, 5]: 1700 ± 180 ng/mL
clearance [2, 5]: 0.258 mL/min/kg
AUC(0-t) [2, 6]: 28100 ± 2150 ng·h/mL
Cmax [2, 6]: 2500 ± 370 ng/mL
clearance [2, 6]: 0.308 mL/min/kg
concentration at 96 hours ([2]; female, bovine, plasma, intravenous, 250 μg/kg given in a single dose, read-out: mean concentration of letrozole in the circulation at 96 hours): 43.7 ± 8.79 ng/mL
half-life [2, 7]: 26.9 ± 0.95 h
MRT [2, 7]: 31.7 ± 2 h
half-life [2, 8]: 26.6 ± 1.18 h
MRT [2, 8]: 33.7 ± 2.98 h
half-life [2, 9]: 28.5 ± 1.05 h
MRT [2, 9]: 35.8 ± 1.43 h
AUC(0-t) [2, 10]: 18200 ± 4030 ng·h/mL
half-life [2, 10]: 27 h
Cmax [2, 10]: 1800 ± 270 ng/mL
MRT [2, 10]: 34 h
clearance [2, 10]: 0.27 mL/min/kg
mean plasma letrozole concentration throughout the 8-day period ([2]; high dose 500 μg/kg iv): 0.63 ± 0.04 µg/mL
mean plasma letrozole concentration throughout the 8-day period ([2]; low dose 125 μg/kg iv): 0.27 ± 0.04 µg/mL
mean plasma letrozole concentration throughout the 8-day period ([2]; medium dose 250 μg/kg iv): 0.44 ± 0.04 µg/mL
reduction in circulating estradiol concentrations [3]: 97-99%
